The target of the assay is T1, Androgen receptor (Rattus norvegicus, UniProt P15207).
T1 sequence (P15207 whole entry): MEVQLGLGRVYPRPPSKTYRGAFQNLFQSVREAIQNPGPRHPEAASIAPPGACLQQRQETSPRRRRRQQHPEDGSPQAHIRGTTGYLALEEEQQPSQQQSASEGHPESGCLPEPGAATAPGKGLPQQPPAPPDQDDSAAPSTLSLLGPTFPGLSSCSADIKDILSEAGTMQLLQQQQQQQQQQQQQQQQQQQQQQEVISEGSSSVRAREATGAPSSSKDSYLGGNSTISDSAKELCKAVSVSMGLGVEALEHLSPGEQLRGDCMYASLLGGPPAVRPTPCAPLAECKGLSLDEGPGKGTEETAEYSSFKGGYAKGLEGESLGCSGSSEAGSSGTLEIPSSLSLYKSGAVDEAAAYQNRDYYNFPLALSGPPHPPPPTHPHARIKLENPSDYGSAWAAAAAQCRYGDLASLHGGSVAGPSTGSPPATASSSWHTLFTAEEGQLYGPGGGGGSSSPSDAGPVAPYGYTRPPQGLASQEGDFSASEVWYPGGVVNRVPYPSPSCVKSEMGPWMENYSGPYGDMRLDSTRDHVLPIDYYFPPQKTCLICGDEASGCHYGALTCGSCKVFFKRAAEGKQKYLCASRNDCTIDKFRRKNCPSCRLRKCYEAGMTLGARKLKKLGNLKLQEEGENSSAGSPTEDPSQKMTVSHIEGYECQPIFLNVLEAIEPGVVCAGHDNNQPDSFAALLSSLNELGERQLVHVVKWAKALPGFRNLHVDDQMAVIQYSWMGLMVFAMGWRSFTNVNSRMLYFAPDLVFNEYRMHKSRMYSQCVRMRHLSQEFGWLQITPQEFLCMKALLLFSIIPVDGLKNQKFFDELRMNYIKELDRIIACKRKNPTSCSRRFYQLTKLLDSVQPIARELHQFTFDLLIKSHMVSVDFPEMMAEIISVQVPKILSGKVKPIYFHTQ
As to the kind of experiment: Competitive Radioligand Displacement Assay. The settings on record: pH 7.4; 4 °C. In general terms: Loss of bound radioactivity is the signal in a displacement assay; it reports binding, not function.

Each structure is given as a SMILES string. pKi: −log10 of the molar value.

For orientation: pKi means −log10 of the Ki, conventionally taken in molar units. Low values mean a large Ki, high ones a small Ki.

In the case of `C[C@](O)(COc1ccc(I)cc1)C(=O)Nc1ccc([N+](=O)[O-])c(C(F)(F)F)c1` [(2S)-2-hydroxy-3-(4-iodophenoxy)-2-methyl-N-[4-nitro-3-(trifluoromethyl)phenyl]propanamide], the pKi is 7.52.

Turning to `C[C@](O)(COc1ccc(Br)cc1)C(=O)Nc1ccc([N+](=O)[O-])c(C(F)(F)F)c1` [(2S)-3-(4-bromophenoxy)-2-hydroxy-2-methyl-N-[4-nitro-3-(trifluoromethyl)phenyl]propanamide], the pKi is 7.93. The compound `CC(O)(COc1ccc([N-]C#[S+])cc1)C(=O)Nc1ccc([N+](=O)[O-])c(C(F)(F)F)c1` [(2S)-2-hydroxy-3-(4-isothiocyanatophenoxy)-2-methyl-N-[4-nitro-3-(trifluoromethyl)phenyl]propanamide] gave a pKi of 8.34.

Turning to `CC(=O)Nc1ccc(SC[C@](C)(O)C(=O)Nc2ccc([N+](=O)[O-])c(C(F)(F)F)c2)cc1` [(2R)-3-[(4-acetamidophenyl)sulfanyl]-2-hydroxy-2-methyl-N-[4-nitro-3-(trifluoromethyl)phenyl]propanamide], the pKi is 8.31.

For the origin of these results see BindingDB's records for doi:10.1021/jm030336u (University of Tennessee At Memphis, 2004).
